tested on: r(CUG)12-MBNL1 complex; assay: Inhibition of the r(CUG)12-MBNL1 complex measured by TR-FRET; assay type: biochemical; details: Table L; 80 nM RNA, 60 nM MBNL1-His6

IC50 [µM] | SMILES
> 200 | CN(C)CCNC(=O)c1ccc2nc(-c3ccc(-c4nc5ccc(C(=O)NCCN(C)C)cc5[nH]4)c(Br)c3)[nH]c2c1 [Compound 78]
7.8 | CN(C)CCNC(=O)c1ccc2nc(-c3ccc(-c4nc5ccc(C(=O)NCCN(C)CCN)cc5[nH]4)cc3)[nH]c2c1 [Compound 37, N-(2-((2-aminoethyl)(methyl)amino)ethyl)-2-(4-(6-((2-(dimethylamino)ethyl)carbamoyl)-1H-benzo[d]imidazol-2-yl)phenyl)-1H-benzo[d]imidazole-6-carboxamide]
31.3 | Nc1ccc2nc(-c3ccc(-c4ccc(-c5nc6ccc(N)cc6[nH]5)cc4)cc3)[nH]c2c1 [Compound 80]
> 200 | Oc1ccc(-c2nc3cc(-c4ccc5[nH]c(-c6ccc(O)cc6)nc5c4)ccc3[nH]2)cc1 [Compound 105]
10.3 | O=C(NCCCN1CCCCC1)c1ccc2nc(-c3ccc(-c4nc5ccc(C(=O)NCCCN6CCCCC6)cc5[nH]4)cc3)[nH]c2c1 [Compound 48, 2,2′-(1,4-phenylene)bis(N-(3-(piperidin-1-yl)propyl)-1H-benzo[d]imidazole-6-carboxamide)]

SMILES | IC50 [µM]
c1cc(-c2nc3cc(-c4ccc5[nH]c(-c6ccc(CN7CCCC7)cc6)nc5c4)ccc3[nH]2)ccc1CN1CCCC1 [Compound 127, 2,2′-bis(4-(pyrrolidin-1-ylmethyl)phenyl)-1H,1′H-5,5′-bibenzo[d]imidazole] | 27.8
Nc1ccc2nc(-c3ccc(-c4nc5ccc(N)cc5[nH]4)cc3)[nH]c2c1 [Compound 2, 2,2′-(1,4-phenylene)bis(1H-benzo[d]imidazol-6-amine)] | 197
NC(=O)Cc1ccc(-c2nc3cc(-c4ccc5[nH]c(-c6ccc(CC(N)=O)cc6)nc5c4)ccc3[nH]2)cc1 [Compound 124, 2,2′-(1H,1′H-[5,5′-bibenzo[d]imidazole]-2,2′-diylbis(4,1-phenylene))diacetamide] | 170

same assay, conditions: Table M; 80 nM RNA, 60 nM MBNL1-His6

IC50 [µM] | SMILES
> 200 | CN(C)CCCOc1ccc2c(c1)nc(-c1ccc(-c3nc4cc(OCCCN(C)C)ccc4n3C)cc1)n2C [Compound 309]
7.64 | Cc1cc(-c2nc3cc(-c4ccc5[nH]c(-c6ccc(OCCCN(C)C)c(C)c6)nc5c4)ccc3[nH]2)ccc1OCCCN(C)C [Compound 364]
> 200 | CN(C)CC#CCOc1ccc2nc(-c3ccc(-c4nc5ccc(OCC#CCN(C)C)cc5[nH]4)cc3)[nH]c2c1 [Compound 226, 4,4′-((2,2′-(1,4-phenylene)bis(1H-benzo[d]imidazole-6,2-diyl))bis(oxy))bis(N,N-dimethylbut-2-yn-1-amine)]
9.6 | CN(C)CCNC(=O)c1ccc(-c2nc3ccc(-c4ccc5nc(-c6ccc(C(=O)NCCCOCCOCCOCCCNC(=O)c7ccc(-c8nc9ccc(-c%10ccc%11nc(-c%12ccc(C(=O)NCCN(C)C)cc%12)[nH]c%11c%10)cc9[nH]8)cc7)cc6)[nH]c5c4)cc3[nH]2)cc1 [Compound 429]
73.2 | CN1CCN(CCNC(=O)c2ccc(-c3nc4cc(-c5ccc6[nH]c(-c7ccc(C(=O)O)cc7)nc6c5)ccc4[nH]3)cc2)CC1 [Compound 343]
61.5 | CN(C)CCCOc1ccc2nc(-c3ccc(-c4nc5ccc(OCCCN(C)C)cc5[nH]4)c(N)c3)[nH]c2c1 [Compound 291, 3,3′-(((2-amino-1,4-phenylene)bis(1H-benzo[d]imidazole-2,6-diyl))bis(oxy))bis(N,N-dimethylpropan-1-amine)]
9.83 | CN(C)CCNC(=O)c1ccc(-c2nc3ccc(-c4ccc5nc(-c6ccc(C(=O)NCC(C)(C)CNC(=O)c7ccc(-c8nc9ccc(-c%10ccc%11nc(-c%12ccc(C(=O)NCCN(C)C)cc%12)[nH]c%11c%10)cc9[nH]8)cc7)cc6)[nH]c5c4)cc3[nH]2)cc1 [Compound 425]
> 200 | CN(C)CCCCc1ccc2nc(-c3ccc(-c4nc5ccc(CCCCN(C)C)cc5[nH]4)cc3)[nH]c2c1 [Compound 220, 4,4′-(2,2′-(1,4-phenylene)bis(1H-benzo[d]imidazole-6,2-diyl))bis(N,N-dimethylbutan-1-amine)]
14.8 | CN(C)CCCOc1ccc(-c2nc3cc(-c4ccc5[nH]c(-c6ccc(C(=O)NCCCN=[N+]=[N-])cc6)nc5c4)ccc3[nH]2)cc1 [Compound 400]

From US10961202B2, “Bis-benzimidazole compounds and methods of using the same” (THE SCRIPPS RESEARCH INSTITUTE, priority 2017, dated 2021)
